Measurements from article PMC5485613, “A novel TRPM8 agonist relieves dry eye discomfort” (BMC Ophthalmology, 2017).

How the values were obtained:
[1] = biological target: T1, human TRPM8 (Homo sapiens, UniProt Q7Z2W7); assay: TRPM8 calcium assay (Fluo-8, FLIPR) in transfected CHO cells; format: cell-based; details: x Menthol
T1 construct: host or cells: CHO cells, stably transfected
Protocol: Compounds were tested on Chinese Hamster Ovary (CHO) cells stably transfected with human TRPM8 cDNAs using a Fluo-8 calcium kit and a Fluorescence Imaging Plate Reader ([…]™) instrument. […] Solutions were prepared by diluting stock solutions in a HEPES-buffered physiological saline (HBPS) solution. Test compound and control formulations were loaded in polypropylene or glass-lined 384-well plates, and placed into the FLIPR instrument (Molecular Devices Corporation, Union City, CA, USA). Each was tested at 8 concentrations with n = 4 replicates per determination. […] For […]™ assay, cells were plated in 384-well black wall, flat clear-bottom microtiter plates (Type: BD Biocoat Poly-D-Lysine Multiwell Cell Culture Plate) at approximately 30,000 cells per well. Cells were incubated at 37 °C overnight to reach a near confluent monolayer appropriate for use in a fluorescence assay. The test procedure was to remove the growth media and to add 40 μL of HBPS containing Fluo-8 for 30 min at 37 °C. 10 μL of test compound, vehicle, or control solutions in HBPS were added to each well and read for 4 min. Concentration-response data were analyzed via the FLIPR Control software that is supplied with the FLIPR System (MDS-AT) and fitted to a Hill equation.

[2] = system: dry eye mice; assay: Mouse dry eye model (extraorbital lacrimal gland removal): tear volume, blinking, corneal abrasion; format: in vivo; details: for Tear secretion (phenol-red thread wetting): mean ± SEM
Protocol: C57BL/6 J wild-type mice were purchased from Jackson Laboratory (Stock No. 000664). Adult male mice were anesthetized with xylazine ([…]) and ketamine ([…]) mixture and incisions of 5 mm were made in the skin between the eye and the ear, both extraorbital lacrimal glands were gently isolated by forceps and removed. As mouse has three pairs of lacrimal glands, removing the extraorbital ones will induce partially tear secretion deficiency, but still have other tear sources to be triggered. Sham mice received the same procedure without gland removal. Skin was sutured with 6–0 black monofilament nylon (Ethilon from Ethicon, Inc.). All mice received antibiotics (100 μL Enroflox™, intramuscular daily) and topical analgesia (2% lidocaine gel) for 2 days postoperative. Behavioral assays were done between 2 and 4 weeks after the surgery.
Tear volume was measured with phenol-red cotton threads (Zone-Quick; Showa Yakuhin Kako CO., Ltd., Tokyo, Japan) as described. The threads were held with forceps and applied to the lateral canthus for 30 s. Immediately afterwards the wetting of the thread was read in mm under a dissection microscope. Corneal abrasion was assessed under cobalt blue light after application of 0.5 μl of 0.25% fluorescein sodium (Bausch & Lomb Inc. Tampa, FL 33637). Grades of abrasion were classified with a grading system that is based on area of corneal staining. Grouping was blinded to the observers. Results were grouped according to the treatments after analysis.
To determine if C3 affected tear secretion, we tested its effect in mice. Mice were held firmly and 2 μL of C3 or vehicle was wiped gently on eyelid by pipette from nasal side to bitemporal. Tear secretion was increased by C3 in sham-operated animals and in mice in which the extraorbital lacrimal glands were surgically removed (Fig. 4a). […] The positive results in an animal model of DED justified further studies in human subjects.

[3] = system: volunteers; assay: C3 eye drop instilled in volunteers, sensation scores; format: in vivo, human
Protocol: Eye drops represent ~90% of formulations used for treatment of anterior eye disorders. […] Subjects were asked to rate discomfort, blurring, and coolness sensations, on a scale of 0 (no effect) to 5 (intense effect) at 5, 10, and 15 min after instillation. […] Cooling sensation scores were significant at 5 min (2.6 vs 0.2), but there were not much cooling at 10 (0.8 vs 0.2) or 15 min (0.2 vs 0.2). It appeared as if eye drops are a relatively inefficient method of C3 delivery because the drop splashes in a confined space and the time for the active ingredient to be retained on target receptors is short. Furthermore, the initial period of discomfort is not desirable. To determine if there were other TRPM8 targets on the orbit, we examined the mouse eye with a selective TRPM8-GFP reporter line.

[4] = sham group or dry eye mouse model, single administration

T1 sequence (Q7Z2W7 whole entry): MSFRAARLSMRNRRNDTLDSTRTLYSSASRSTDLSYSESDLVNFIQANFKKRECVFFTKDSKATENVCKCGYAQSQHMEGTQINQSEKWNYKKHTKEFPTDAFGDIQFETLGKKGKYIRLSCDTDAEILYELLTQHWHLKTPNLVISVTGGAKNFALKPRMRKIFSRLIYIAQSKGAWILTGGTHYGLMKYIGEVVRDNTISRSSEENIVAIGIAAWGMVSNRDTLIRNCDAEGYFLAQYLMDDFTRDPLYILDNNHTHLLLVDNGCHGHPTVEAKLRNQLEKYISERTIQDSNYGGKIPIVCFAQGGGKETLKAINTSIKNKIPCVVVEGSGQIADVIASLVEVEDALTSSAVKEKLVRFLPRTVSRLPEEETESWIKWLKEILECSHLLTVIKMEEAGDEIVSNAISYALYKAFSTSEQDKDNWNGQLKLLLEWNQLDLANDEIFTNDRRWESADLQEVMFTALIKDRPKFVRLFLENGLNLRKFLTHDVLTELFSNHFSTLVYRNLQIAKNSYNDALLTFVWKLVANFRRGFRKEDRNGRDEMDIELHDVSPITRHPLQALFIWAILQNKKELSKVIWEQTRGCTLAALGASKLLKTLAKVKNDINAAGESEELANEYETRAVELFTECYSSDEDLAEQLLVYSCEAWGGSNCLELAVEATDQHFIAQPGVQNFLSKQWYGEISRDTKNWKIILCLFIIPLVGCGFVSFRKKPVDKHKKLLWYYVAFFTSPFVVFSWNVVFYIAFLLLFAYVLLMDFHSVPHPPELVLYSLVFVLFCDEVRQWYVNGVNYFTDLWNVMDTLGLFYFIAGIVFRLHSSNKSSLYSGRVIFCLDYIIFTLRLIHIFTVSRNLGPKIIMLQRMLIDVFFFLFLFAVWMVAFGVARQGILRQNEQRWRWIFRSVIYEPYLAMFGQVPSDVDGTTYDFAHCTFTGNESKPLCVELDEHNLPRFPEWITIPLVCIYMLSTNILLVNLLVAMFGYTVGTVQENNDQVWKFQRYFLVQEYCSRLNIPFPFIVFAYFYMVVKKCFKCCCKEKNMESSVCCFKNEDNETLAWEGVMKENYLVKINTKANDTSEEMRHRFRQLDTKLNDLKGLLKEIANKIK

relative potency to l-menthol (menthol = 1) [1]: 4.0
blurring ([3]; 0.1 mg/mL eye drop, 5, 10 and 15 min): did not cause significant blurring
discomfort ([3]; 0.1 mg/mL, 50 μL eye drop, 10 or 15 min): not at 10 or 15 min
discomfort score (0-5) ([3]; 0.1 mg/mL, 50 μL eye drop, 5 min, n = 5): 1.6
SMILES: CCCCCCCCCP(=O)(C(C)C)C(C)C [C3, 1-diisopropylphosphorylnonane]
Tear secretion (phenol-red thread wetting) ([2]; dry eye mice, n = 6, 2 μL wiped on eyelid): 1.3 ± 0.4 mm
Spontaneous blinking [2, 4]: not affected
corneal abrasion [2, 4]: not affected
Tear secretion (phenol-red thread wetting) ([2]; sham group, n = 5, 2 μL wiped on eyelid): 5.4 ± 0.5 mm
Cooling sensation score (0-5) ([3]; 0.1 mg/mL eye drop, 5 min): 2.6
Cooling sensation score (0-5) ([3]; 0.1 mg/mL eye drop, 10 min): 0.8
Cooling sensation score (0-5) ([3]; 0.1 mg/mL eye drop, 15 min): 0.2
duration of cooling after eye drop ([3]; 0.1 mg/mL eye drop, volume printed as 70 μL): ≤ 10 min
